Source: patent publication US8980843B2, “Leptin agonist and methods of use” (Temple University—of the Commonwealth System of Higher …, priority 2009, dated 2015)
Entries after “also recorded” stand apart in the source; their conditions may differ. Non-standard residues stand in square brackets, D forms with d. Residues, ends and D or L forms follow the SMILES beside them. *: point of attachment. αGalNAc = CC(=O)N[C@@H]1[C@@H](O)[C@@H](O)[C@@H](CO)O[C@@H]1*; Tyr(3,5-I2) = N[C@@H](Cc1cc(I)c(O)c(I)c1)C(=O)O; Acp = not defined here; Ahx = NCCCCCC(=O)O

Experiments:
[1] = In vivo biodistribution of fluorescent-labelled peptide
Method: Compound (2), labeled with fluorescent dye Alexa Fluor® 680, was prepared and purified by reverse phase HPLC. 5 μg of the compound were injected intraperitoneally into anesthetized female Balb/c mice. While sleeping, the animals were placed into the fluorescence microscope chamber. Fluorescence exposure pictures were taken with a Kodak 4000MM camera set to 695 nm emission wavelength at five minute intervals afterwards for 80 min.

C57BL/6 mice = test: Short chronic toxicity study in peanut-fed mice; format: in vivo; details: 1.5 or 4.0 mg/kg ip once daily, 4 days
Method: Eight C57BL/6 mice, 6 weeks of age (8 mice: 4 males, 4 females), were fed with peanut diet for 6 days. They were split in three different groups. The first group was left untreated (4 mice: 2 males, 2 females). The second group received a compound of the invention once daily intraperitoneally at 1.5 mg/kg for 4 days (2 mice: 1 male, 1 female). The third group received a compound of the invention once daily intraperitoneally at 4.0 mg/kg (2 mice: 1 male, 1 female) for 4 days. The animals were inspected daily for signs of disease or discomfort. After 5 days of treatment, the mice were weighed, sacrificed with CO2 inhalation, and bled for laboratory blood analysis. Their brains, livers, kidneys and spleens were inspected, removed and weighed.
Eight mice (4 males, 4 females) were fed with peanut diet for 6 days. After that, they were left untreated (2 males, 2 females), or received compound (1) once daily at 1.5 mg/kg (1 male, 1 female) or 4.0 mg/kg (1 male, 1 female) for 4 days.

[2] = test system: ObR-positive LN18 glioblastoma cells; test: Cell proliferation assay, LN18 glioblastoma cells; format: cell-based; details: data not shown
Method: (§1) LN18 and LN229 cells naturally expressing ObR were purchased from ATCC and were cultured in DMEM low glucose plus 5% fetal bovine serum.
(§2) Seventy percent confluent cultures of LN18 and LN229 cells were synchronized in serum-free medium (DMEM plus 10 μM FeSO4 and 0.5% bovine serum albumin—BSA) for 48 hours and then treated with leptin and/or compounds (different doses) for 3 days. Cell numbers before and after treatment were determined by direct counting the cells with trypan blue exclusion. All assays were done in triplicate and repeated 3-6 times. The cell numbers were expressed as means±standard error. The results were statistically evaluated by Student's t-test and analysis of variance (ANOVA). Values of p<0.05 were considered statistically significant.
(§3) Stimulation of ObR-positive cells by compound (1) was evaluated. A true agonist of an ObR-positive receptor should stimulate the growth of ObR-positive cells when added alone and should not antagonize the actions of leptin in the same cells. In order to determine whether compound (1) is a true agonist, the ObR-positive, CNS-resident glioblastoma cell lines LN229 and LN18 were used. EC values for this peptide were measured without exogenous leptin present, and IC values with 12 nM leptin added.

[3] = test system: ObR-positive LN229 glioblastoma cells; test: Cell proliferation assay, ObR-positive LN229 glioblastoma cells; format: cell-based; details: for Selectivity (EC/IC): LN229 cells
Method: as §1, §2, §3

normal F344 male rats = test: Rat appetite control, intranasal administration to normal rats; format: in vivo; details: 0.1 mg/kg/day intranasal
Method: Eight 6-weeks-old male […] rats were kept on regular laboratory diet. At noon time for 10 days, the animals were weighed, turned upside down, and received 0.1 mg/kg/day of a compound of the invention ([…]) or physiological solution ([…]) dripped in 10 μL volume into their nose. On day 15, the rats were weighed and sacrificed (cervical dislocation), and bled for laboratory blood analysis. Their brains, livers, kidneys and spleens were removed and weighed.
Rats were allowed to lab chow ad libitum, and treatment lasted for 10 days with 0.1 mg/kg/day single dose of compound (1) dropped into the nose in 10 μL salt solution. Untreated control animals were administered 10 μL physiological salt solution. Results are represented in FIG. 5.

[4] = test system: high-fat induced obesity (DIO) C57BL/6 mice; test: Mouse model of obesity and leptin resistance (DIO mice); format: in vivo; details: for Blood glucose level / Blood total cholesterol level: DIO mice; for resistance to treatment (weight curves): 10-day ip treatment, leptin 0.1, compound (1) 0.02 and 0.1 mg/kg/day
Method: Animals were sacrificed by CO2 inhalation. Livers were removed and fixed in 10% buffered formaldehyde, pH, 7.4. After 24 hour fixation, liver specimens were dehydrated in graded ethanol and placed into methyl benzoate for an hour. The specimens were then transferred to xylene and embedded into paraffin. 6-μm thick paraffin sections were deparaffinized and stained with H&E. Photomicrographs were taken by using a Zeiss light microscope equipped with a CCD camera. The final magnification of the pictures was 200-fold.
An animal model for leptin resistance was used to evaluate compounds of the invention. In this model, based on high-fat induced obesity (DIO) of normal mice, the animals are fed with a diet containing 40-60% fat and become resistant to leptin treatment (Steinberg et al., 2006, Endocrinology 147: 3906-3914; Nakagawa et al., 2003, J. Obesity 27: 557-565). Normal C57BL/6 mice were fed with regular 6% lab chow until 3 weeks of age when their diet was switched to peanuts only. Peanuts have 47-50% dry fat content, and are considered a typical high-fat food (Isleib et al., 2004, J. Agric. Food Chem. 52: 3165-3168). DIO mice develop peripheral leptin resistance after 16 days of high-fat diet (van Heek et al., 1997, J. Clin. Invest. 99:3 85-390). In this study, the mice were fed peanuts for 5 weeks. The animals had access to water and peanuts ad libitum. After 3 weeks (total age 6 weeks) a group of 6 mice remained untreated, and 4 groups received leptin or a compound of the invention.
Mice were weighed daily and received a daily single dose (around noon time) intraperitoneally with the following scheme: Group 1 (6 mice: 3 males, 3 females) —physiological solution (control); Group 2 (6 mice: 3 males, 3 females) —0.1 mg/kg/day leptin; Group 3 (4 mice: 2 males, 2 females) —0.02 mg/kg/day compound of the invention; Group 4 (6 mice: 3 males, 3 females) —0.1 mg/kg/day compound of the invention; and Group 5 (4 mice: 2 males, 2 females) —0.5 mg/kg/day compound of the invention. After 10 days of treatment, one male and one female mouse from each group were sacrificed and bled, and their livers, spleens, kidneys and brains were removed for histology and toxicity analysis.
The DIO mice were allowed to eat peanut ad libitum. They were weighed daily and received the following intraperitoneal treatment at noontime: Group 1 (6 mice: 3 males, 3 females) —physiological solution (control); Group 2 (6 mice: 3 males, 3 females) —0.1 mg/kg/day of leptin; Group 3 (4 mice: 2 males, 2 females) —0.02 mg/kg/day of compound (1); Group 4 (6 mice: 3 males, 3 females) —0.1 mg/kg/day of compound (1); and Group 5 (4 mice: 2 males, 2 females) —0.5 mg/kg/day of compound (1).

obese C57BL/6 mice = test: Pregnancy test after treatment of obese mice; format: in vivo; details: for Number of pregnancy incidents: observed 5 weeks
Excerpt: The remaining mice after the treatment with leptin or a compound of the invention were returned to 6% fat lab chow diet, and locked into cages in couples. […] The two successful litters were examined for growth and behavioral patterns.
Upon cessation of the weight gain assay and laboratory work, the remaining mice were returned to 6% fat lab chow diet, and locked into cages in couples to investigate whether treatment with leptin or compound (1) improved their fertility rates. […] Neither of two couples of control, untreated mice produced litters, as expected (Table 3). […] Leptin treatment somewhat improved the situation because one of the two couples produced a litter. As for the couple of mice treated with the 0.5 mg/kg/day dose of compound (1), the female became pregnant immediately and delivered 6 healthy pups in less than a month (Table 3).

[5] = 5 μg intraperitoneally, fluorescence imaging

CC(=O)N[C@H]1[C@@H](O[C@H](C)[C@H](NC(=O)[C@H](CO)NC(=O)[C@@H](N)Cc2cc(I)c(O)c(I)c2)C(=O)N[C@@H](CCC(=O)O)C(=O)N[C@H](C(=O)N[C@H](C(=O)N[C@@H](C)C(=O)N[C@@H](CC(C)C)C(=O)N[C@@H](CO)C(=O)N[C@@H](CCCNC(=N)N)C(=O)NCCCCCC(N)=O)C(C)C)C(C)C)O[C@H](CO)[C@H](O)[C@@H]1O [compound (1), Tyr(I2)-Ser-Thr(α-GalNAc)-Glu-Val-Val-Ala-Leu-Ser-Arg-AcpNH2] (H-[Tyr(3,5-I2)]ST(αGalNAc)EVVALSR[Ahx]-NH2; N-terminus assumed)
BBB-penetrating ability, by inference from compound (2) ([1]; inferred from labelled analogue): good BBB-penetrating ability
average organ weight, brain (C57BL/6 mice): 0.3 g
average organ weight, kidney (females) (C57BL/6 mice): 0.20 g
average organ weight, kidney (males) (C57BL/6 mice): 0.25 g
average organ weight, liver (C57BL/6 mice): 1.06 g
average organ weight, spleen (C57BL/6 mice): 0.09 g
gross necropsy (C57BL/6 mice): no signs of toxicity
weight change during compound addition (C57BL/6 mice): Three of the 4 treated mice lost weight
agonistic activity [2]: picomolar agonistic activities
Selectivity (EC/IC) [3]: >100
Selectivity (EC/IC) ([3]; listed as Compound (1)): greater than 100
IC100 ([3]; LN229 proliferation, with 12 nM leptin added): >100 nM
EC100 ([3]; LN229 proliferation, without exogenous leptin, 3 days): <1 nM
Antagonistic properties (ICs) to leptin-induced LN229 stimulation ([3]; with 12 nM leptin added): ≥ 100 nM
weight growth less than untreated controls (normal F344 male rats; 10 days, day 11): 10.8 g
net total body weight (tbw) loss (normal F344 male rats; 10 days, day 14): 6.8%
weight growth less than untreated controls (normal F344 male rats; 10 days, day 14): 11.7 g
average total blood cholesterol level (normal F344 male rats; at sacrifice): 1.28 mmol/L
organ weight, brain (normal F344 male rats; at sacrifice): 1.2 g
organ weight, kidney (normal F344 male rats; at sacrifice): 1.5 g
organ weight, liver (normal F344 male rats; at sacrifice): 6.9 g
organ weight, spleen (normal F344 male rats; at sacrifice): 0.42 g
weight reduction relative to untreated controls at end of treatment ([4]; 0.02 mg/kg/day ip, 10 days): 0.5 g
Blood glucose level ([4]; 0.02 mg/kg/day ip): 8.45 mM/L
Blood total cholesterol level ([4]; 0.02 mg/kg/day ip): 2.51 mM/L
weight reduction relative to untreated controls at end of treatment ([4]; 0.1 mg/kg/day ip, 10 days): 0.6 g
Blood glucose level ([4]; 0.1 mg/kg/day ip): 8.55 mM/L
Blood total cholesterol level ([4]; 0.1 mg/kg/day ip): 2.77 mM/L
blood cholesterol level reduction ([4]; 0.5 mg/kg/day ip): 9%
glucose level reduction ([4]; 0.5 mg/kg/day ip): 17%
liver fat cell content (histology) ([4]; 0.5 mg/kg/day ip): fatty cytoplasm could no longer be observed; also recorded: fat cells were completely eliminated from the liver
net total body weight loss ([4]; 0.5 mg/kg/day ip, 10 days): 6.5%
relative weight loss compared to untreated mice ([4]; 0.5 mg/kg/day ip, 10 days): 1.3 g
Blood glucose level ([4]; 0.5 mg/kg/day ip): 7.06 mM/L
Blood total cholesterol level ([4]; 0.5 mg/kg/day ip): 2.08 mM/L
liver fat cell content, dose dependence ([4]; 0.02, 0.1 and 0.5 mg/kg/day ip): lowered the fatty cell content of the liver in a dose-dependent manner
resistance to treatment (weight curves) [4]: lack of resistance to peptide treatment
Number of pregnancy incidents (obese C57BL/6 mice; after 0.02 mg/kg/day ip): 0
Number of pregnancy incidents (obese C57BL/6 mice; after 0.1 mg/kg/day ip): 0
healthy pups delivered (obese C57BL/6 mice; after 0.5 mg/kg/day ip, one couple): 6
Number of pregnancy incidents (obese C57BL/6 mice; after 0.5 mg/kg/day ip): 1
fertility of couples (obese C57BL/6 mice; low-dose regimen (0.02 and 0.1 mg/kg/day)): remained infertile

Alexa680-Tyr(I2)-Ser-Thr(α-GalNAc)-Glu-Val-Val-Ala-Leu-Ser-Arg-AcpNH2 ({Alexa680-Tyr(3,5-I2)-Ser-Thr(α-GalNAc)}-EVVALSR-{Acp-NH2}; reading uncertain) [compound (2)]
BBB-penetrating ability [1, 5]: good BBB-penetrating ability
distribution into peptide elimination organs (kidneys, liver, spleen) [1, 5]: distributed into the usual peptide elimination organs within one hour from administration
presence in tail, limbs and brain [1, 5]: also found in the tail, the limbs and the brain

leptin: Human leptin purchased from R&D Systems; 146-amino acid neurohormone, native ObR ligand
liver fat cell content (histology) ([4]; 0.1 mg/kg/day ip): acinoperipheral regions of the liver still contained fat cells
weight reduction relative to untreated controls at end of treatment ([4]; 0.1 mg/kg/day ip, 10 days): 0.3 g
Blood glucose level ([4]; 0.1 mg/kg/day ip): 5.22 mM/L
Blood total cholesterol level ([4]; 0.1 mg/kg/day ip): 2.47 mM/L
resistance to treatment (weight curves) [4]: fast acquisition of resistance
Number of pregnancy incidents (obese C57BL/6 mice; after 0.1 mg/kg/day ip): 1
